Assay results taken from US20240043427A1 (Gilead Sciences, Inc., priority 2020, published 2024).

Tests used:
CD73 [1] = target: T1, CD73 (Homo sapiens (Human), UniProt P21589); test: MDA-MB-231 Cell Based CD73 Activity Assay (DMEM); settings: MDA-MB-231-GFP cells, DMEM medium with 10% human plasma, 200 uM AMP
CD73 [2] = target: T1, CD73; format: biochemical; settings: 1 mM NaH2PO4 in enzyme buffer, CD73 0.3 nM, AMP 15 uM

T1 sequence (P21589 27-574): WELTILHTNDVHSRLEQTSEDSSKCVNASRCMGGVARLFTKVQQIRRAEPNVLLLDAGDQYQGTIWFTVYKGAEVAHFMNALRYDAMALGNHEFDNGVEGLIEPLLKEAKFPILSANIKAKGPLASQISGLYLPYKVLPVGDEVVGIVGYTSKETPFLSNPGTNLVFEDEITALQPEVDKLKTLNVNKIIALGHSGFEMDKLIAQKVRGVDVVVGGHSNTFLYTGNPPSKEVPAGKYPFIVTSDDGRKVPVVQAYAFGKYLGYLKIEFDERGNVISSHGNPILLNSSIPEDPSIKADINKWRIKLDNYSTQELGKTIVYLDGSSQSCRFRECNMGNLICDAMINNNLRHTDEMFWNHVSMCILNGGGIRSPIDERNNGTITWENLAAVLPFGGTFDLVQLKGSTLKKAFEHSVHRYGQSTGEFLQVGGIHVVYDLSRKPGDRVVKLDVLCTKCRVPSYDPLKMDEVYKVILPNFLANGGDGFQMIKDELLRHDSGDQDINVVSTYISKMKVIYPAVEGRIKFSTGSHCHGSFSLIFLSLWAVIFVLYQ

Structure (SMILES) | EC50 (CD73 [1]) [nM] | IC50 (CD73 [2]) [nM]
O=c1[nH]cc(-c2cc([C@H]3C[C@@H]3c3ccc4cnn(CC(F)(F)F)c4n3)c3ncc(F)n3n2)c(=O)[nH]1 (racemic) [Example 602, 5-(3-fluoro-8-((1S,2S)-2-(1-(2,2,2-trifluoroethyl)-1H-pyrazolo[3,4-b]pyridin-6-yl)cyclopropyl)imidazo[1,2-b]pyridazin-6-yl)pyrimidine-2,4(1H,3H)-dione] | 0.53 | 0.93
O=c1[nH]cc(-c2cc([C@H]3C[C@@H]3c3ccc4cnc(CC(F)(F)F)n4c3)c3nccn3n2)c(=O)[nH]1 (racemic) [Example 605, 5-(8-((1S,2S)-2-(3-(2,2,2-trifluoroethyl)imidazo[1,5-a]pyridin-6-yl)cyclopropyl)imidazo[1,2-b]pyridazin-6-yl)pyrimidine-2,4(1H,3H)-dione] | 0.12 | 1.26
O=c1[nH]cc(-c2cc([C@H]3C[C@@H]3c3cc4c(cn3)c(C(F)(F)F)nn4CC(F)(F)F)c3nccn3n2)c(=O)[nH]1 (racemic) [Example 608, 5-(8-((1S,2S)-2-(1-(2,2,2-trifluoroethyl)-3-(trifluoromethyl)-1H-pyrazolo[4,3-c]pyridin-6-yl)cyclopropyl)imidazo[1,2-b]pyridazin-6-yl)pyrimidine-2,4(1H,3H)-dione] | 0.48 | 2.36
O=c1[nH]cc(-c2cc([C@H]3C[C@@H]3c3ccc4c(C(F)(F)F)nc(CC(F)(F)F)n4c3)c3nccn3n2)c(=O)[nH]1 (racemic) [Example 609, 5-(8-((1S,2S)-2-(3-(2,2,2-trifluoroethyl)-1-(trifluoromethyl)imidazo[1,5-a]pyridin-6-yl)cyclopropyl)imidazo[1,2-b]pyridazin-6-yl)pyrimidine-2,4(1H,3H)-dione] | 0.39 | 2.36
O=c1[nH]cc(-c2cc([C@H]3C[C@@H]3c3ncc4cnn(CC(F)(F)F)c4c3F)c3nccn3n2)c(=O)[nH]1 (racemic) [Example 615, 5-(8-((1S,2S)-2-(7-fluoro-1-(2,2,2-trifluoroethyl)-1H-pyrazolo[4,3-c]pyridin-6-yl)cyclopropyl)imidazo[1,2-b]pyridazin-6-yl)pyrimidine-2,4(1H,3H)-dione] | 0.28 | 1.54
O=c1[nH]cc(-c2cc([C@H]3C[C@@H]3c3ccc4nc5n(c4c3)C(C(F)(F)F)CC5)c3nccn3n2)c(=O)[nH]1 (mixture of isomers) [Example 616, 5-(8-((1S,2S)-2-(1-(trifluoromethyl)-2,3-dihydro-1H-benzo[d]pyrrolo[1,2-a]imidazol-7-yl)cyclopropyl)imidazo[1,2-b]pyridazin-6-yl)pyrimidine-2,4(1H,3H)-dione] | 0.2 | 2.3
O=c1[nH]cc(-c2cc([C@H]3C[C@@H]3c3ncc4cnn(CC(F)(F)F)c4c3F)c3ncc(F)n3n2)c(=O)[nH]1 (racemic) [Example 621, 5-(3-fluoro-8-((1S,2S)-2-(7-fluoro-1-(2,2,2-trifluoroethyl)-1H-pyrazolo[4,3-c]pyridin-6-yl)cyclopropyl)imidazo[1,2-b]pyridazin-6-yl)pyrimidine-2,4(1H,3H)-dione] | 0.32 | 1.32
O=c1[nH]cc(-c2cc([C@H]3C[C@@H]3c3cc(-c4ccccc4C(F)(F)F)ccn3)c3nccn3n2)c(=O)[nH]1 (racemic) [Example 622, 5-(8-((1S,2S)-2-(4-(2-(trifluoromethyl)phenyl)pyridin-2-yl)cyclopropyl)imidazo[1,2-b]pyridazin-6-yl)pyrimidine-2,4(1H,3H)-dione] | 27.3 | 2.87
O=c1[nH]cc(-c2cc([C@H]3C[C@@H]3c3cc4c(cn3)nc(C(F)(F)F)n4CC(F)(F)F)c3nccn3n2)c(=O)[nH]1 (racemic) [Example 624, 5-(8-((1S,2S)-2-(1-(2,2,2-trifluoroethyl)-2-(trifluoromethyl)-1H-imidazo[4,5-c]pyridin-6-yl)cyclopropyl)imidazo[1,2-b]pyridazin-6-yl)pyrimidine-2,4(1H,3H)-dione] | 0.32 | 5.81
O=c1[nH]cc(-c2cc([C@H]3C[C@@H]3c3ccc4nc(C(F)F)n(CC(F)(F)F)c4c3)c3nccn3n2)c(=O)[nH]1 (racemic) [Example 626, 5-(8-((1S,2S)-2-(2-(difluoromethyl)-1-(2,2,2-trifluoroethyl)-1H-benzo[d]imidazol-6-yl)cyclopropyl)imidazo[1,2-b]pyridazin-6-yl)pyrimidine-2,4(1H,3H)-dione] | 0.26 | 5.16
CC(F)(F)CN1C(=O)C2(CC2)c2ccc([C@H]3C[C@@H]3c3cc(-c4c[nH]c(=O)[nH]c4=O)nn4ccnc34)cc21 (racemic) [Example 733, 5-(8-((1S,2S)-2-(1′-(2,2-difluoropropyl)-2′-oxospiro[cyclopropane-1,3′-indolin]-6′-yl)cyclopropyl)imidazo[1,2-b]pyridazin-6-yl)pyrimidine-2,4(1H,3H)-dione] | 0.11 | 2.72

Now from value to molecule:

EC50 (CD73 [1]) [nM] | IC50 (CD73 [2]) [nM] | Structure (SMILES)
0.09 | 1.94 | O=c1[nH]cc(-c2cc([C@H]3C[C@@H]3c3ccc4nc(C(F)(F)F)n(CC(F)(F)F)c4c3)c3nccn3n2)c(=O)[nH]1 (racemic) [Example 603, 5-(8-((1S,2S)-2-(1-(2,2,2-trifluoroethyl)-2-(trifluoromethyl)-1H-benzo[d]imidazol-6-yl)cyclopropyl)imidazo[1,2-b]pyridazin-6-yl)pyrimidine-2,4(1H,3H)-dione]
0.12 | 0.83 | O=c1[nH]cc(-c2cc([C@H]3C[C@@H]3c3cc4c(cn3)cnn4CC(F)(F)F)c3ncc(F)n3n2)c(=O)[nH]1 (racemic) [Example 604, 5-(3-fluoro-8-((1S,2S)-2-(1-(2,2,2-trifluoroethyl)-1H-pyrazolo[4,3-c]pyridin-6-yl)cyclopropyl)imidazo[1,2-b]pyridazin-6-yl)pyrimidine-2,4(1H,3H)-dione]
0.14 | 0.95 | O=c1[nH]cc(-c2cc([C@H]3C[C@@H]3c3cnc4cnn(CC(F)(F)F)c4c3)c3ncc(F)n3n2)c(=O)[nH]1 (racemic) [Example 619, 5-(3-fluoro-8-((1S,2S)-2-(1-(2,2,2-trifluoroethyl)-1H-pyrazolo[4,3-b]pyridin-6-yl)cyclopropyl)imidazo[1,2-b]pyridazin-6-yl)pyrimidine-2,4(1H,3H)-dione]
22 | 2.27 | O=c1[nH]cc(-c2cc([C@H]3C[C@@H]3c3cc(-c4ccc(F)cc4F)ccn3)c3nccn3n2)c(=O)[nH]1 (racemic) [Example 623, 5-(8-((1S,2S)-2-(4-(2,4-difluorophenyl)pyridin-2-yl)cyclopropyl)imidazo[1,2-b]pyridazin-6-yl)pyrimidine-2,4(1H,3H)-dione]
10.1 | 2.47 | O=c1[nH]cc(-c2cc([C@H]3C[C@@H]3c3ccn4c(C(F)(F)F)ncc4c3)c3nccn3n2)c(=O)[nH]1 (racemic) [Example 625, 5-(8-((1S,2S)-2-(3-(trifluoromethyl)imidazo[1,5-a]pyridin-7-yl)cyclopropyl)imidazo[1,2-b]pyridazin-6-yl)pyrimidine-2,4(1H,3H)-dione]
> 50 | 2.57 | O=c1[nH]cc(-c2cc([C@H]3C[C@@H]3c3cc(OCC(F)(F)F)c4cccnc4c3)c3nccn3n2)c(=O)[nH]1 (racemic) [Example 627, 5-(8-((1S,2S)-2-(5-(2,2,2-trifluoroethoxy)quinolin-7-yl)cyclopropyl)imidazo[1,2-b]pyridazin-6-yl)pyrimidine-2,4(1H,3H)-dione]
